Experimental data from patent publication US11696917B2, “Agent enhancing antitumor effect using pyrazolo[3,4-d]pyrimidine compound” (TAIHO PHARMACEUTICAL CO., LTD., priority 2017, dated 2023).
Where two headings read alike, the source gives them in different places.

What was measured:
[1] = tested on: human stomach cancer cell line NCI-N87; test: Combination of Compound 1 and capecitabine (in vivo), subcutaneous tumor in nude mice; design: species or system nude mouse (BALB/cAJcl-nu/nu); conditions: for T/C (%): Day 15
Description: A human stomach cancer cell line NCI-N87 was obtained from American Type Culture Collection (ATCC). The cell line was cultured at 37° C. in a 5% CO2 incubator using RPMI-1640 (containing 4.5 g/L glucose, 10 mM HEPES, and 1 mM sodium pyruvate) (Wako Pure Chemical Industries, Ltd.) medium containing 10% fetal bovine serum (FBS).
The NCI-N87 cells were resuspended at a concentration of 8×10^7 cells/mL in PBS.
The cell suspension was subcutaneously transplanted in an amount of 8×10^6 cells/0.1 mL to the right chest of a 6-week-old nude mouse (BALB/cAJcl-nu/nu, CLEA Japan, Inc.) using a 1 mL syringe for tuberculin and a 25 G injection needle.
Electronic calipers were used in tumor size measurement.

[2] = biological target: purified recombinant human HER2 protein (Homo sapiens (Human), UniProt P04626); test: Measurement of inhibitory effect on HER2-phosphorylating activity (in vitro); type: biochemical; conditions: ATP 6 μM, 25° C., 40 minutes
Description: The purified recombinant human HER2 protein used in the test was purchased from Carna Biosciences, Inc.
For the inhibitory activity measurement of each compound, the synthesis example compound was first serially diluted with dimethyl sulfoxide (DMSO).

[3] = tested on: EGFR-overexpressing highly activated human epithelioid cancer cell line A431 cells; test: Cytostatic activity against EGFR-expressing cell line (A431), CellTiter-Glo; type: cell-based; conditions: 3-day culture, read-out: A431 cell growth inhibitory activity IC50 value
Description: (§1) HER2-overexpressing human stomach cancer cell line NCI-N87 cells were suspended in RPMI1640 medium (manufactured by Life Technologies Corp.) containing 10% fetal bovine serum. Meanwhile, EGFR-overexpressing highly activated human epithelioid cancer cell line A431 cells were suspended in DMEM, high glucose medium (manufactured by Life Technologies Corp.) containing 10% fetal bovine serum. Subsequently, each cell suspension was inoculated to each well of a 384-well flat-bottom microplate and cultured at 37° C. for 1 day in an incubator containing 5% carbon dioxide. The synthesis example compound was dissolved in DMSO, and the test compound was diluted into a concentration of 500 times the final concentration using DMSO. The solution of the test compound in DMSO was diluted with the medium used in the suspension of each cell line, and this solution was added at a final concentration of DMSO of 0.2% to each well of the cell culture plate, followed by further culture at 37° C. for 3 days in an incubator containing 5% carbon dioxide.
(§2) Rate of growth inhibition (%)=(C−T)/(C)×100 T: Luminescence intensity of a well supplemented with the test compound C: Luminescence intensity of a well not supplemented with the test compound

[4] = tested on: HER2-overexpressing human stomach cancer cell line NCI-N87 cells; test: Cytostatic activity against HER2-expressing cell line (NCI-N87), CellTiter-Glo; type: cell-based; conditions: 3-day culture, read-out: NCI-N87 cell growth inhibitory activity IC50 value
Description: as §1

[5] = tested on: HER2-overexpressing human breast cancer cell line SK-BR-3 cells; test: Cytostatic activity against HER2-expressing cell line (SK-BR-3), CellTiter-Glo; type: cell-based; conditions: 3-day culture, read-out: SK-BR-3 cell growth inhibitory activity IC50 value
Description: as §2
as §1, with “breast” for “stomach”, “SK-BR-3” for “NCI-N87”, “McCoy's 5a” for “RPMI1640”, “The” for “Meanwhile, EGFR-overexpressing highly activated human epithelioid cancer cell line A431 cells were suspended in DMEM, high glucose medium (manufactured by Life Technologies Corp.) containing 10% fetal bovine serum. Subsequently, each”, “into” for “into a concentration of”, “times as high concentration as” for “times”

[6] = Capecitabine 359 mg/kg/day p.o. Days 1-14
[7] = Capecitabine 809 mg/kg/day p.o. Days 1-14

Sequence of purified recombinant human HER2 protein (P04626 23-1255): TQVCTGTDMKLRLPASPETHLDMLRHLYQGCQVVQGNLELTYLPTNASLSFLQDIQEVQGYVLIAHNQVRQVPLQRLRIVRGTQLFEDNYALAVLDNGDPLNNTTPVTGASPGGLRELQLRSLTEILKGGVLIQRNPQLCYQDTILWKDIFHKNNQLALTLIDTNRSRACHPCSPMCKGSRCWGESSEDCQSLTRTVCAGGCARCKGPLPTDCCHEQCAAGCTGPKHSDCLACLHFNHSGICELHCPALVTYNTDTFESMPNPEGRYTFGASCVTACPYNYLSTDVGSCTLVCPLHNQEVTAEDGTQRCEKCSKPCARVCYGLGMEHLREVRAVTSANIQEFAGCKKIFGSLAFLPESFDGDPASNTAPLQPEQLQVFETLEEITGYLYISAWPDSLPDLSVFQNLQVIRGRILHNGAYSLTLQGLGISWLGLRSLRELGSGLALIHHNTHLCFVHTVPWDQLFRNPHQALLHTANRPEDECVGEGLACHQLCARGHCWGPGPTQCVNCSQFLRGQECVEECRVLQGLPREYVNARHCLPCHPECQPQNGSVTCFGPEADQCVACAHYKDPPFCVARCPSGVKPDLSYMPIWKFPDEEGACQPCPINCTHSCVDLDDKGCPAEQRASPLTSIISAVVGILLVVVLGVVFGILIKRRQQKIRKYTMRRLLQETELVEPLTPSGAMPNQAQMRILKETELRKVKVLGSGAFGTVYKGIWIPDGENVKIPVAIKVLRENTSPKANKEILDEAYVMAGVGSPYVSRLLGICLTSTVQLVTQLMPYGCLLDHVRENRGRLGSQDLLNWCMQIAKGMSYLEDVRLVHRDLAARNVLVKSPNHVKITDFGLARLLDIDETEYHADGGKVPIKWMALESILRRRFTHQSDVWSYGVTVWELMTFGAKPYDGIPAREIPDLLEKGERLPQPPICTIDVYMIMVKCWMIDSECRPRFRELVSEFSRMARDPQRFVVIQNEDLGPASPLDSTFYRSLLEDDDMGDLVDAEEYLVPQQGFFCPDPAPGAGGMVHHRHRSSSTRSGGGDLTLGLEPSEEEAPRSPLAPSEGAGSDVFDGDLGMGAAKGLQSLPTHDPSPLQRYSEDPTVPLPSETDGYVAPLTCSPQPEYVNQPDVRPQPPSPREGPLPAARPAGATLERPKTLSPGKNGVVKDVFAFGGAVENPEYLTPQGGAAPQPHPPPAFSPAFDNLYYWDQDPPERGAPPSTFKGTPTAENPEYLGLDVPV

| SMILES | IC50 [2] | IC50 [3] | IC50 [4] | IC50 [5] | also measured |
| --- | --- | --- | --- | --- | --- |
| CCCCCOC(=O)Nc1nc(=O)n([C@@H]2O[C@H](C)[C@@H](O)[C@H]2O)cc1F [Capecitabine, capecitabine] |  |  |  |  | BWC (%) Day 15 Mean [1, 6]: 7.51%; RTV Day 15 Mean ± SD [1, 6]: 1.26 ± 0.21; T/C (%) [1, 6]: 30.4%; BWC (%) Day 15 Mean [1, 7]: −5.30%; RTV Day 15 Mean ± SD [1, 7]: 1.12 ± 0.18; T/C (%) [1, 7]: 27.1%; RTV on Day 15 compared with the control group (in words) ([1]; Dunnett's test): significantly lower |
| C=CC(=O)N1CCC[C@@H](n2nc(C(=O)Nc3cc(Br)c(CC(=O)N(C)C)cc3C)c3c(N)ncnc32)C1 [compound 1] | 0.01 µM | 2.32 µM | 0.019 µM | 0.02 µM |  |
| C=CC(=O)N1CCC[C@@H](n2nc(C(=O)Nc3cc(C)c(CC(=O)N(C)C)cc3Cl)c3c(N)ncnc32)C1 [compound 2] | 0.0083 µM | 2.67 µM | 0.045 µM | 0.03 µM |  |
| C=CC(=O)N1CCC[C@@H](n2nc(C(=O)Nc3ccc(CC(=O)N(C)C)c(C)c3Cl)c3c(N)ncnc32)C1 [compound 3] | 0.0071 µM | 3.37 µM | 0.027 µM | 0.009 µM |  |
| C=CC(=O)N1CCC[C@@H](n2nc(C(=O)Nc3ccc(CC(=O)N(C)C)cc3C)c3c(N)ncnc32)C1 [compound 4] | 0.012 µM | 2.61 µM | 0.012 µM | 0.016 µM |  |
| C=CC(=O)N1CCC[C@@H](n2nc(C(=O)Nc3ccc(CC(=O)N(C)C)c4ccccc34)c3c(N)ncnc32)C1 [compound 5] |  | 1.23 µM | 0.006 µM | 0.011 µM |  |
| C=CC(=O)N1CCC[C@@H](n2nc(C(=O)Nc3ccc(CC(=O)N(C)C)cc3Cl)c3c(N)ncnc32)C1 [compound 6] | 0.004 µM | 1.29 µM | 0.007 µM | 0.014 µM |  |
| C=CC(=O)N1CCC[C@@H](n2nc(C(=O)Nc3ccc(CC(=O)N(C)C)cc3OC)c3c(N)ncnc32)C1 [compound 7] | 0.0071 µM | 2.81 µM | 0.012 µM | 0.031 µM |  |
| C=CC(=O)N1CCC[C@@H](n2nc(C(=O)Nc3cc(F)c(CC(=O)N(C)C)cc3C)c3c(N)ncnc32)C1 [compound 10] | 0.013 µM | 1.41 µM | 0.006 µM | 0.021 µM |  |
| C=CC(=O)N1CCC[C@@H](n2nc(C(=O)Nc3ccc(CC(=O)N(C)C)c(Cl)c3OC)c3c(N)ncnc32)C1 [compound 11] | 0.0075 µM | 0.961 µM | 0.004 µM | 0.012 µM |  |
| C=CC(=O)N1CCC[C@@H](n2nc(C(=O)Nc3ccc(CC(=O)N(C)C)c(C)c3C)c3c(N)ncnc32)C1 [compound 13, (R)-1-(1-acryloylpiperidin-3-yl)-4-amino-N-(4-(2-(dimethylamino)-2-oxoethyl)-2,3-dimethylphenyl)-1H-pyrazolo[3,4-d]pyrimidine-3-carboxamide] |  |  |  |  | IC50 ([3]; Homo sapiens, A-431, 72 h): 1.21 µM; IC50 ([4]; Homo sapiens, NCI-N87, 72 h): 0.005 µM; IC50 ([5]; Homo sapiens, SK-BR-3, 72 h): 0.009 µM |
| C=CC(=O)N1CCC[C@@H](n2nc(C(=O)Nc3ccc(CC(=O)N(C)C)c(F)c3OC)c3c(N)ncnc32)C1 [compound 14] | 0.0046 µM | 0.486 µM | 0.004 µM | 0.01 µM |  |
| C=CC(=O)N1CCC[C@@H](n2nc(C(=O)Nc3ccc(CC(=O)N(C)C)cc3OC(F)F)c3c(N)ncnc32)C1 [compound 15] | 0.0086 µM | 2.27 µM | 0.02 µM | 0.03 µM |  |
| C=CC(=O)N1CCC[C@@H](n2nc(C(=O)Nc3ccc(CC(=O)N(C)C)cc3OCF)c3c(N)ncnc32)C1 [compound 16] | 0.01 µM | 3.46 µM | 0.027 µM | 0.04 µM |  |
| C=CC(=O)N1CCC[C@@H](n2nc(C(=O)Nc3ccc(CC(=O)N(C)C)cc3Br)c3c(N)ncnc32)C1 [compound 17] | 0.0059 µM | 0.91 µM | 0.005 µM | 0.013 µM |  |
| C=CC(=O)N1CCC[C@@H](n2nc(C(=O)Nc3cc(Cl)c(CC(=O)N(C)C)cc3C)c3c(N)ncnc32)C1 [compound 19] | 0.01 µM | 1.26 µM | 0.012 µM | 0.024 µM |  |
| C=CC(=O)N1CCC[C@@H](n2nc(C(=O)Nc3ccc(OC(=O)N(C)C)cc3C)c3c(N)ncnc32)C1 [compound 26] | 0.007 µM | 0.984 µM | 0.005 µM | 0.008 µM |  |
| C=CC(=O)N1CCC[C@@H](n2nc(C(=O)Nc3ccc(OC(=O)N(C)C)cc3Cl)c3c(N)ncnc32)C1 [compound 27] |  | 1.51 µM | 0.005 µM | 0.009 µM |  |
| C=CC(=O)N1CCC[C@@H](n2nc(C(=O)Nc3ccc(OC(=O)N(C)C)c(Cl)c3)c3c(N)ncnc32)C1 [compound 29] | 0.0065 µM | 2.22 µM | 0.046 µM | 0.044 µM |  |
| C=CC(=O)N1CCC[C@@H](n2nc(C(=O)Nc3ccc(OC(=O)N(C)C)c(C)c3)c3c(N)ncnc32)C1 [compound 30] |  | 2.35 µM | 0.023 µM | 0.039 µM |  |
| C=CC(=O)N1CCC[C@@H](n2nc(C(=O)Nc3ccc(OC(=O)N(C)C)c(C)c3C)c3c(N)ncnc32)C1 [compound 32] |  | 1.92 µM | 0.007 µM | 0.014 µM |  |
| C=CC(=O)N1CCC[C@@H](n2nc(C(=O)Nc3ccc(OC(=O)N(C)C)cc3OC)c3c(N)ncnc32)C1 [compound 36] |  |  |  | 0.012 µM |  |
| C=CC(=O)N1CCC[C@@H](n2nc(C(=O)Nc3cc(C)c(OC(=O)N(C)C)cc3C)c3c(N)ncnc32)C1 [compound 38] |  | 1.04 µM | 0.008 µM | 0.012 µM |  |
| C=CC(=O)N1CCC[C@@H](n2nc(C(=O)Nc3ccc(CC(=O)N(C)C)c4c3OCO4)c3c(N)ncnc32)C1 [compound 53] | 0.014 µM |  |  | 0.018 µM |  |
| C=CC(=O)N1CC[C@@H](n2nc(C(=O)Nc3ccc(CC(=O)N(C)C)c(F)c3OC)c3c(N)ncnc32)C1 [compound 57] | 0.031 µM | 3.39 µM | 0.044 µM |  |  |
| C=CC(=O)N1CC(F)C[C@@H](n2nc(C(=O)Nc3ccc(CC(=O)N(C)C)cc3Cl)c3c(N)ncnc32)C1 (stereo partly drawn) [compound 76, 1-((3R)-1-acryloyl-5-fluoropiperidin-3-yl)-4-amino-N-(2-chloro-4-(2-(dimethylamino)-2-oxoethyl)phenyl)-1H-pyrazolo[3,4-d]pyrimidine-3-carboxamide] |  |  |  |  | IC50 ([3]; Homo sapiens, A-431, 72 h): 2.07 µM; IC50 ([5]; Homo sapiens, SK-BR-3, 72 h): 0.008 µM |
| C=CC(=O)N1CC(F)C[C@@H](n2nc(C(=O)Nc3ccc(CC(=O)N(C)C)c(C)c3C)c3c(N)ncnc32)C1 (stereo partly drawn) [compound 77, 1-((3R)-1-acryloyl-5-fluoropiperidin-3-yl)-4-amino-N-(4-(2-(dimethylamino)-2-oxoethyl)-2,3-dimethylphenyl)-1H-pyrazolo[3,4-d]pyrimidine-3-carboxamide] |  |  |  |  | IC50 ([3]; Homo sapiens, A-431, 72 h): 2.46 µM; IC50 ([5]; Homo sapiens, SK-BR-3, 72 h): 0.012 µM |
